Blank lines part the entries; values can stand above or below the compound they belong to.
Key:
[1] = biological target: T1, DtolTA (PLP-dependent transaminase of fold type IV) (Desulfobacula toluolica, UniProt K0NPP0); test: half-reaction (deamination) kinetics, absorbance at […] nm; kmax/KD^app; assay type: biochemical; parameters: gene dat; (His)6-tagged DtolTA
T1 sequence (K0NPP0 1-286): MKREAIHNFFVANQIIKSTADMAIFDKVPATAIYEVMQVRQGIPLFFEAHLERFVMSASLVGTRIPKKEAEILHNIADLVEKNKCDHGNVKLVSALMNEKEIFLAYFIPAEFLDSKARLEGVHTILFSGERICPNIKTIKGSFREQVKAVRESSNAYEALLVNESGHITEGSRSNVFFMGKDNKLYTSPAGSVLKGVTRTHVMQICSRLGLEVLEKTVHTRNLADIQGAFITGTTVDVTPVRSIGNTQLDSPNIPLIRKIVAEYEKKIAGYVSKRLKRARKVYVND

[2] = biological target: T2, DtolTA (PLP-dependent transaminase of fold type IV) (Desulfobacula toluolica, UniProt K0NPP0, R144I); test: as above; assay type: biochemical
T2 construct: gene dat; (His)6-tagged DtolTA variant

[3] = biological target: T3, DtolTA (PLP-dependent transaminase of fold type IV) (Desulfobacula toluolica, UniProt K0NPP0, K91A); test: half-reaction kinetics of variant apoenzyme in the presence of PLP; kmax/KD^app at pH […]; assay type: biochemical
T3 construct: gene dat; (His)6-tagged DtolTA variant

[4] = biological target: T1, DtolTA (PLP-dependent transaminase of fold type IV); test: half-reaction (deamination) kinetics, absorbance at […] nm; kmax/KD^app at pH […]; assay type: biochemical; parameters: gene dat; (His)6-tagged DtolTA
[5] = biological target: T2, DtolTA (PLP-dependent transaminase of fold type IV); test: tyrosine fluorescence quenching titration of apoenzyme; assay type: binding
Source text: tyrosine fluorescence quenching titration of apoenzyme on DtolTA (PLP-dependent transaminase of fold type IV) | apparent dissociation constant Kd(PLP) for the R144I holoenzyme were similar to those of WT

[6] = biological target: T1, DtolTA (PLP-dependent transaminase of fold type IV); test: crystal structure (9J0V […] Å; also 9J0U […] Å); tyrosine fluorescence quenching titration of apoenzyme; assay type: binding; parameters: gene dat; full length, 286 a.a; (His)6-tagged for Kd, tag removed for crystals
[7] = biological target: TA from Haliscomenobacter hydrossis (Haliscomenobacter hydrossis); test: SEC; gel filtration of the purified enzyme; column and buffer not given

- half-reaction (deamination) kinetics, absorbance at 411 nm; kmax/KD^app [1]: 0.015 ± 0.005 M⁻¹ s⁻¹
Compound: C[C@@H](N)c1ccccc1 [(R)-1-phenylethylamine]

Compound: C[C@@H](N)C(=O)O [D-alanine]
- half-reaction (deamination) kinetics, absorbance at 411 nm; kmax/KD^app [2]: 29 ± 1 M⁻¹ s⁻¹
- half-reaction kinetics of variant apoenzyme in the presence of PLP; kmax/KD^app [3]: 2.4 ± 0.7 M⁻¹ s⁻¹
- half-reaction (deamination) kinetics, absorbance at 411 nm; kmax/KD^app at pH 8. [4]: 37 ± 1 M^−1s^−1

Compound: N[C@H](CCC(=O)O)C(=O)O [D-glutamate]
- half-reaction (deamination) kinetics, absorbance at 411 nm; kmax/KD^app [1]: 0.020 ± 0.001 M⁻¹ s⁻¹

Compound: Cc1ncc(COP(=O)(O)O)c(C=O)c1O [pyridoxal-5′-phosphate]
- Kd [5]: 43 ± 2 µM
- Kd [6]: 30 ± 4 µM

- stoichiometry N [7]: 2
Compound: TA from Haliscomenobacter hydrossis (enzyme)
